Laboratory results from US20210346378A1, “METHOD TO PREVENT AND TREAT ALOPECIA BY CALCIUM CHANNEL BLOCKERS, ANGIOTENSIN CONVERTING ENZYME INHIBITORS, AND ANGIOTENSIN RECEPTOR BLOCKERS” (priority 2019, published 2021).
Where two headings read alike, the source gives them in different places.

Experiments:
androgenic alopecia = settings: cited from earlier work
female pattern hair loss = settings: women, facial hair growth during treatment; cited from earlier work
alopecia [1] = test: composition directly applied to the scalp on one side of the head, other side left untreated; assay type: in vivo, human
Source text: (§1) patient one is diagnosed with alopecia. A composition comprising the calcium channel blocker nifedipine is directly applied to the scalp on one side of the head while the other side is left untreated. […] patient one is diagnosed with alopecia. A composition comprising the ACE inhibitor enalapril is directly applied to the scalp on one side of the head while the other side is left untreated. […] patient one is diagnosed with alopecia. A composition comprising the angiotensin receptor blocker losartan is directly applied to the scalp on one side of the head while the other side is left untreated. […] patient two is diagnosed with alopecia. A composition comprising the calcium channel blocker nifedipine is directly applied to the scalp on one side of the head while the other side is left untreated. […] patient two is diagnosed with alopecia. A composition comprising the ACE inhibitor enalapril is directly applied to the scalp on one side of the head while the other side is left untreated. […] patient two is diagnosed with alopecia. A composition comprising the angiotensin receptor blocker losartan is directly applied to the scalp on one side of the head while the other side is left untreated.

alopecia [2] = test: composition directly injected into the scalp on one side of the head, other side left untreated; assay type: in vivo, human
Source text: as §1, with “injected into” for “applied to”, “the” for “the other”

CC(C)(C)NC(=O)[C@H]1CC[C@H]2[C@@H]3CC[C@H]4NC(=O)C=C[C@]4(C)[C@H]3CC[C@]12C [Finasteride]
hair count higher than baseline as compared to placebo (androgenic alopecia; after 4 years): 24.3%
hair count higher than baseline as compared to placebo (androgenic alopecia; after one year of treatment): 9.42%

Nc1cc(N2CCCCC2)nc(N)[n+]1[O-] [Minoxidil]
time for facial hair growth side effect to resolve (female pattern hair loss): at least 4 months

CCOC(=O)[C@H](CCc1ccccc1)N[C@@H](C)C(=O)N1CCC[C@H]1C(=O)O [enalapril]
symptoms of alopecia, treated side versus untreated side (alopecia [1]; patient one): reduced symptoms of alopecia
symptoms of alopecia, treated side versus untreated side (alopecia [1]; patient two): reduced symptoms of alopecia
symptoms of alopecia, treated side versus untreated side (alopecia [2]; patient one): reduced symptoms of alopecia
symptoms of alopecia, treated side versus untreated side (alopecia [2]; patient two): reduced symptoms of alopecia

CCCCc1nc(Cl)c(CO)n1Cc1ccc(-c2ccccc2-c2nn[nH]n2)cc1 [losartan]
symptoms of alopecia, treated side versus untreated side (alopecia [1]; patient one): reduced symptoms of alopecia
symptoms of alopecia, treated side versus untreated side (alopecia [1]; patient two): reduced symptoms of alopecia
symptoms of alopecia, treated side versus untreated side (alopecia [2]; patient one): reduced symptoms of alopecia
symptoms of alopecia, treated side versus untreated side (alopecia [2]; patient two): reduced symptoms of alopecia
